Laboratory results: article PMC6001834 (Drug Design, Development and Therapy, 2018)

Tested on: AMI rats
Assay: In vivo effects of LNCs on infarct size
Design: species or system Sprague-Dawley rats
Settings: intravenous injection, n=8, AMI group 58%

Nc1ncnc2c1ncn2[C@@H]1O[C@H](CO)[C@@H](O)[C@H]1O [free Ade, Adenosine]
infarct size (percentage of whole size of the left ventricle): 47%
